Experimental data as given in patent publication US20250186378A1, “COMPOSITION INCLUDING VITAMIN B5 FOR IMPROVING RESPIRATORY HEALTH AND TREATING OR PREVENTING RESPIRATORY DISEASES, PHARMACEUTICAL COMPOSITION INCLUDING THE SAME FOR TREATING OR PREVENTING RESPIRATORY DISEASES, AND HEALTH FUNCTIONAL FOOD COMPOSITION INCLUDING THE SAME FOR IMPROVING RESPIRATORY …” (KT&G CORPORATION, priority 2023, published 2025).

System: total cells in bronchoalveolar lavage fluid
Assay: Total cell count in bronchoalveolar lavage fluid, PM10D respiratory injury inflammation model
Assay type: in vivo, Balb/c mice
Conditions: vitamin B5 inhaled at 6 mg/kg or more, compared to the induced group and the oral administration group
Experimental: As an experimental animal, Balb/c mice (male, 6 weeks old, body weight of 15 to 17 g) were purchased from Coretech after receiving approval from the Institutional Animal Care and Use Committee (IACUC). After acclimatization for one week in the breeding room of the KT&G Bio-Efficacy Evaluation Center (temperature 23±2° C., humidity 50±10%, 12-hour light/dark cycle), the mice were used in the experiment. A PM10D mixture was prepared by diluting 3 mg/mL of particulate matter 10 (hereinafter PM10) [ERM-CZ120, Sigma Aldrich, St. Louis, MO, USA] and 0.6 mg/mL of diesel particulate matter (hereinafter DEP) [NIST-2975, Sigma Aldrich, St. Louis, MO, USA] in 1% Alum (Aluminium Hydroxide, 239186, Sigma Aldrich, USA). […] The exposure amount of aerosol (mg/L) was calculated as a dose (mg/kg) using a calculation formula based on a prior art (Alexander et al., Inhal Toxicol. 2008 October; 20(13):1179-89.). […] After centrifugation (1500 RPM/4° C./10 min) of the obtained bronchoalveolar lavage fluid, the supernatant was stored in an ultra-low temperature freezer (−70° C.) to measure cytokines, and cells isolated from the bronchoalveolar lavage fluid were treated with ammonium-chloride-potassium buffer (ACK, A10492-01, Gibco, NY, USA) solution for 10 minutes to lyse red blood cells, and then washed again with phosphate buffered saline, and the total cell count was measured using a hematocytometer. […]

CC(C)(CO)[C@@H](O)C(=O)NCCC(=O)O [vitamin B5, pantothenic acid]
Total cell count in bronchoalveolar lavage fluid (result in words): reduced
